We go through six molecules from patent US20260191968A1, “PROTAC DEGRADERS OF MLLT1 AND/OR MLLT3” (DARK BLUE THERAPEUTICS LTD, priority 2024, published 2026).

One experiment deals with MV4-11 cells. Put plainly: MV4-11 cellular proliferative assay, Assay Format B (CTG 2.0, 168 h). The class given is cell-based. Particulars: Homo sapiens, 168 h (7 days), CTG 2.0, read-out: IC50 (MV4-11 cellular proliferative assay, Assay format B). The gist of the method: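 MV4-11 cells seeded overnight in IMDM + 10% FBS, then exposed to 10-point, 3-fold dilutions from 1 uM or 100 nM top concentration (0.3% DMSO final) for 168 h at 37 °C. CTG 2.0 luminescence read; % viability vs DMSO control fitted by four-parameter logistic regression.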

The next experiment concerns the target T1, MLLT1 (Homo sapiens, UniProt Q03111).
T1 construct: host or cells: MV4-11
T1 sequence (Q03111 1-559): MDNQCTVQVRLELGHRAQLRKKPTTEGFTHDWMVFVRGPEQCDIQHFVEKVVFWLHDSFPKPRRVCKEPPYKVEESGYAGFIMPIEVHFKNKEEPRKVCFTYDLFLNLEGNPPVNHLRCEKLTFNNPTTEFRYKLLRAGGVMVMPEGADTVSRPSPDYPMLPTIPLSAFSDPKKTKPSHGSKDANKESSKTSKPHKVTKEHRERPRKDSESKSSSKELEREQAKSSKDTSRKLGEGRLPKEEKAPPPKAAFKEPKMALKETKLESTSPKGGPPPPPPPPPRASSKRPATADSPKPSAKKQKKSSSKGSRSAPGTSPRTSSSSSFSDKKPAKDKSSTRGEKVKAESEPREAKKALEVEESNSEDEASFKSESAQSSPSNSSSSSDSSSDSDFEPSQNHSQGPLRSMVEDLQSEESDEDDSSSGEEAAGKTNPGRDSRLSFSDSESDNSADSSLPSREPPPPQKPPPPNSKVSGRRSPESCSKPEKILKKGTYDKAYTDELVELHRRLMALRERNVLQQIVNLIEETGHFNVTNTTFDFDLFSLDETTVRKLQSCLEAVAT
Put plainly: MLLT1 degradation assay in MV4-11 cells (JESS chemiluminescent detection), three concentrations, 24 h. The conditions noted are these: with respect to DMSO control. In kind it is cell-based. The gist of the method:
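MV4-11 cells treated 24 h at 37° C, 5% CO2 with 1000, 100 and 10 nM compound (0.1% DMSO final). MLLT1 quantified by automated capillary chemiluminescent immunodetection; band peak area expressed as % degradation relative to DMSO control.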

Bounds are passed on as bounds.

In the case of `CN1CCC[C@@H]1c1cc2cnc(NC(=O)c3cccc(CCCCC#Cc4cccc5c4CN(C4CCC(=O)NC4=O)C5=O)c3)cc2[nH]1` (stereo partly drawn) [Example 96, 3-(6-(2-(2,6-dioxopiperidin-3-yl)-1-oxoisoindolin-4-yl)hex-5-yn-1-yl)-N-(2-((R)-1-methylpyrrolidin-2-yl)-1H-pyrrolo[3,2-c]pyridin-6-yl)benzamide], the IC50 in the experiment on MV4-11 cells is not above 100 nM. Moreover, at MLLT1, the “MLLT1% Degradation @ 0.01 μM” value is “A (Category A: A ≥ 75% degradation)”, the “MLLT1% Degradation @ 0.1 μM” value was “A (Category A: A ≥ 75% degradation)” and the “MLLT1% Degradation @ 1 μM” value was “A (Category A: A ≥ 75% degradation)”.

For the molecule `CN1CCC[C@@H]1c1cc2cnc(NC(=O)c3ccc(CCCCC#Cc4cccc5c4CN(C4CCC(=O)NC4=O)C5=O)cc3F)cc2[nH]1` (stereo partly drawn) [Example 112, 4-(6-(2-(2,6-dioxopiperidin-3-yl)-1-oxoisoindolin-4-yl)hex-5-yn-1-yl)-2-fluoro-N-(2-((R)-1-methylpyrrolidin-2-yl)-1H-pyrrolo[3,2-c]pyridin-6-yl)benzamide], in the experiment with MV4-11 cells, the concentration for half-maximal inhibition (IC50) is not above 100 nM. At MLLT1, the “MLLT1% Degradation @ 0.01 μM” value is “A (Category A: A ≥ 75% degradation)”, the “MLLT1% Degradation @ 0.1 μM” value is reported as “A (Category A: A ≥ 75% degradation)” and the “MLLT1% Degradation @ 1 μM” value was “A (Category A: A ≥ 75% degradation)”.

For the molecule `CN1CCC[C@@H]1c1cc2cnc(NC(=O)c3ccc(OC4CCN(CC5CCN(c6cccc7c6CN(C6CCC(=O)NC6=O)C7=O)CC5)CC4)cc3)cc2[nH]1` (stereo in doubt) [Example 122, 4-((1-((1-(2-((rel-S)-2,6-dioxopiperidin-3-yl)-1-oxoisoindolin-4-yl)piperidin-4-yl)methyl)piperidin-4-yl)oxy)-N-(2-((R)-1-methylpyrrolidin-2-yl)-1H-pyrrolo[3,2-c]pyridin-6-yl)benzamide], the IC50 in the experiment with MV4-11 cells is not above 100 nM. In addition, at MLLT1, the “MLLT1% Degradation @ 0.01 μM” value is recorded as “A (Category A: A ≥ 75% degradation)”, the “MLLT1% Degradation @ 0.1 μM” value is “A (Category A: A ≥ 75% degradation)” and the “MLLT1% Degradation @ 1 μM” value is reported as “A (Category A: A ≥ 75% degradation)”.

Consider `CN1CCC[C@@H]1c1[nH]c2cc(NC(=O)c3ccc(OCCC4CCN(c5cccc6c5CN(C5CCC(=O)NC5=O)C6=O)CC4)cc3)ncc2c1Cl` (stereo in doubt) [Example 161, N-(3-chloro-2-((R)-1-methylpyrrolidin-2-yl)-1H-pyrrolo[3,2-c]pyridin-6-yl)-4-(2-(1-(2-((rel-S)-2,6-dioxopiperidin-3-yl)-1-oxoisoindolin-4-yl)piperidin-4-yl)ethoxy)benzamide], for which the half-maximal inhibitory concentration (IC50) in the experiment with MV4-11 cells is not above 100 nM. On MLLT1, the “MLLT1% Degradation @ 0.01 μM” value was “A (Category A: A ≥ 75% degradation)”, the “MLLT1% Degradation @ 0.1 μM” value is given as “A (Category A: A ≥ 75% degradation)” and the “MLLT1% Degradation @ 1 μM” value is recorded as “A (Category A: A ≥ 75% degradation)”.

Take `CN1CCC[C@@H]1c1cc2cnc(NC(=O)c3ccc(OC4CCN(CC5CCN(c6cccc7c6CN(C6CCC(=O)NC6=O)C7=O)CC5)CC4)nc3)cc2[nH]1` (stereo partly drawn) [Example 125, 6-((1-((1-(2-(2,6-dioxopiperidin-3-yl)-1-oxoisoindolin-4-yl)piperidin-4-yl)methyl)piperidin-4-yl)oxy)-N-(2-((R)-1-methylpyrrolidin-2-yl)-1H-pyrrolo[3,2-c]pyridin-6-yl)nicotinamide]: the half-maximal inhibitory concentration (IC50) with MV4-11 cells is not above 100 nM. On MLLT1, the “MLLT1% Degradation @ 0.01 μM” value is on record as “A (Category A: A ≥ 75% degradation)”, the “MLLT1% Degradation @ 0.1 μM” value is on record as “A (Category A: A ≥ 75% degradation)” and the “MLLT1% Degradation @ 1 μM” value is on record as “A (Category A: A ≥ 75% degradation)”.

In the case of `CN(CCC#Cc1cccc2c1CN(C1CCC(=O)NC1=O)C2=O)c1ccc(C(=O)Nc2cc3[nH]c([C@H]4CCCN4C)cc3cn2)cc1` (stereo partly drawn) [Example 87, 4-((4-(2-(2,6-dioxopiperidin-3-yl)-1-oxoisoindolin-4-yl)but-3-yn-1-yl)(methyl)amino)-N-(2-((R)-1-methylpyrrolidin-2-yl)-1H-pyrrolo[3,2-c]pyridin-6-yl)benzamide], in the experiment on MV4-11 cells, the IC50 was not above 100 nM. For the same molecule, on MLLT1, the “MLLT1% Degradation @ 0.01 μM” value is recorded as “A (Category A: A ≥ 75% degradation)”, the “MLLT1% Degradation @ 0.1 μM” value is “A (Category A: A ≥ 75% degradation)” and the “MLLT1% Degradation @ 1 μM” value is recorded as “B (Category B: 50% ≤ B < 75% degradation)”.

A word on the IC50: it is the concentration at which inhibition is half-maximal.
